Assays:
Format in all cases: cell-based, human
[1] = system: AML cells (THP-1, MOLM-13, OCI-AML2, OCI-AML3, MDSL); assay: Colony formation (clonogenic) assay in AML/MDS cell lines; conditions: 2 μM
Method: In order to determine viability after UBE2N knockdown or inhibition, 1×10^6 AML cells were washed with PBS and mixed with pre-diluted APC-conjugated Annexin V (BD Pharmigen, Franklin Lakes, N.J.) and Propidium iodide (PI) (Invitrogen ThermoFisher 00-6990-42, Waltham, Mass.). Cells were stained at room temperature for 15 minutes and suspended in 0.5 ml of Annexin V incubation buffer (eBiosciences 88-8007-74, San Diego, Calif.) for analysis using a BD FACS Canto System (BD Biosciences, San Jose, Calif.). For UBE2N knockdown experiments, PI−/GFP+ cells were sorted using a MoFlo XDP sorter (Beckman Coulter, Brea, Calif.) and plated in methylcellulose (StemCell Technologies H4236, Vancouver, CA) at 1000 cells/ml in 35 mm culture dishes. For UBE2N inhibition experiments, cell lines were plated in methycellulose (StemCell Technologies H4236, Vancouver, CA) at the indicated concentrations of inhibitor. Cells were incubated at 37° C. and 5% CO2. Colonies were scored after 7 days in culture. For UBE2N or UBE2N C87S overexpression experiments, MOLM-13 cells were transduced with lentivectors overexpressing UBE2N wild type or mutant in the presence of polybrene (8 μg/ml). […] Colonies were scored at 7 days. […] Colonies were manually scored at 14-16 days after plating or counted with STEMVision (StemCell Technologies, Vancouver, CA).

MOLM-13 cells = assay: MTS assay of MOLM-13 cells overexpressing UBE2N wild type or UBE2N C87S
Text: For knockdown studies, UBE2N shRNA template oligonucleotides from the TRC shRNA library cloned into the pLKO.1 TRC cloning vector (Addgene: #10878) and pLKO.1 TRC cloning vector (Table 3). The puromycin gene in pLKO.1 was replaced with GFP. pLKO.1 TRC control was used as non-silencing control (Addgene: #10879). For production of lentiviral particles, lentiviral shRNA expression constructs were transfected together with packaging vectors into 293T producer cells using TransIT transfection reagent (Mirus, MIR 2306), supernatants were harvested after 48 and 72 hours, and concentrated by ultracentrifugation. […] UBE2N knockdown efficiency was determined by quantitative real time PCR (qRT-PCR) and western blot and quantified as described elsewhere. […] Levels of overexpression of UBE2N were determined by western blot.
AML cell lines (5×10^3 cells/well) were seeded in 96-well plates and grown for 24 to 96 h in serum (10%)-containing medium in the presence or absence of inhibitors at the indicated concentrations. Proliferation was analyzed by means of an MTS assay using the CellTiter 96 Aqueous One Solution Cell Proliferation Assay (Promega, Madison, Wis., USA), according to the manufacturer's instructions. […] For the screening of 160 compounds from the UC library, the cell metabolic activity was assessed at 24 hours of treatment of MOLM-13 cells. […]

Cord Blood CD34+ = assay: Cell proliferation MTS assay
Method: AML cell lines (5×10^3 cells/well) were seeded in 96-well plates and grown for 24 to 96 h in serum (10%)-containing medium in the presence or absence of inhibitors at the indicated concentrations. Proliferation was analyzed by means of an MTS assay using the CellTiter 96 Aqueous One Solution Cell Proliferation Assay (Promega, Madison, Wis., USA), according to the manufacturer's instructions. Data are mean with standard deviation from three independent experiments in technical triplicates. For the screening of 160 compounds from the UC library, the cell metabolic activity was assessed at 24 hours of treatment of MOLM-13 cells. Top 15 candidates were re-screened at 2 μM, and the cell metabolic activity was determined at 24 hours of treatment. In certain experiments, cell viability was determined by staining the cells with trypan blue at a 1/2 dilution and counting total number of viable cells upon treatment with UC-764864 or DMSO control. The cells were counted daily for 4 days using an automated cell counter (Countess II FL from Life Technologies). […] UC-764864 was added at the indicated concentrations and cells were incubated with drug for 3 days, at which point cell viability was measured by MTS according to manufacturer's instructions.

MOLM-13 and THP-1 cells = assay: Immunoblot / qRT-PCR of NF-κB, STAT1 and IRF signaling; conditions: 2 μM
Method: mRNA expression of selected genes was corroborated by quantitative reverse transcriptase PCR (see primer sequences in Table 2) using cDNA with SYBR® Green or Taqman® gene expression assays (Applied Biosystems, Waltham, Mass.) on the StepOnePlus from Applied Biosystems. Abundance of each transcript was calculated using the Pfaffl Method. Actin or GAPDH were used as housekeeping genes.
For immunoblots, total protein lysates were obtained from cells by lysing the samples in cold RIPA buffer (50 mM Tris-HCl, 150 mM NaCl, 1 mM EDTA, 1% Triton X-100 and 0.1% SDS), in the presence of PMSF, sodium orthovanadate, protease and phosphatase inhibitors. After being re-suspended in RIPA, cells were lysed in the cold room with rocking for 15 min. Protein concentration was evaluated by a BCA assay (Pierce, Waltham, Mass.). SDS sample buffer was added to the lysates and the proteins were separated by SDS-polyacrylamide gel electrophoresis, transferred to PVDF or nitrocellulose membranes, and analyzed by immunoblotting. […] Membranes were imaged with Biorad ChemiDoc™ MP and analyzed with Image lab software 6.0.1 (Biorad, Hercules, Calif.) or Image J [67].

## CCc1ccc(C(=O)C=CSc2nc3ccc(C)cc3[nH]2)cc1 [UC-764864, 1-(4-ethylphenyl)-3-[(6-methyl-1H-benzimidazol-2-yl)sulfanyl]prop-2-en-1-one]
[1]
  reduction in colony formation vs vehicle: 20-95%
MOLM-13 cells
  viability of MOLM-13 cells expressing UBE2N(C87S): did not affect
  viability of MOLM-13 cells expressing wild-type UBE2N: significantly suppressed
Cord Blood CD34+
  proliferation capacity of cord blood CD34+ cells: did not affect
Cord Blood CD34+; Homo sapiens, Cord Blood CD34+, MTS, 24 hours
  IC50: > 10 µM
MOLM-13 and THP-1 cells
  baseline NF-κB, STAT1, IRF7 and IRF1 activity in UBE2N-dependent AML cells: inhibition

From patent US20220267753A1, “RATIONAL THERAPEUTIC TARGETING OF ONCOGENIC IMMUNE SIGNALING STATES IN MYELOID MALIGNANCIES VIA THE UBIQUITIN CONJUGATING ENZYME UBE2N” (CHILDREN'S HOSPITAL MEDICAL CENTER, priority 2019, published 2022)
